Data: PMC11591893, “Exploring the Antidiabetic and Antihypertensive Potential of Peptides Derived from Bitter Melon Seed Hydrolysate” (Biomedicines, 2024)
“Also recorded” adds a separate entry of the source. Where a SMILES comes first, the peptide text is derived from it. Where no end group is shown, it is not given here.

Key:
[1] = target: T1, recombinant human dipeptidyl peptidase-IV (DPP4) (Homo sapiens, UniProt P27487); assay: DPP4 inhibitory activity and IC50 (GP-pNA substrate, absorbance of pNA at 405 nm); type: biochemical; conditions: for IC50: synthetic peptides; for inhibition at 2000 µM / DPP4 inhibitory activity: synthetic peptides at 2 mM
T1 construct: purchased Sigma–Aldrich Co
T1 sequence (P27487 whole entry): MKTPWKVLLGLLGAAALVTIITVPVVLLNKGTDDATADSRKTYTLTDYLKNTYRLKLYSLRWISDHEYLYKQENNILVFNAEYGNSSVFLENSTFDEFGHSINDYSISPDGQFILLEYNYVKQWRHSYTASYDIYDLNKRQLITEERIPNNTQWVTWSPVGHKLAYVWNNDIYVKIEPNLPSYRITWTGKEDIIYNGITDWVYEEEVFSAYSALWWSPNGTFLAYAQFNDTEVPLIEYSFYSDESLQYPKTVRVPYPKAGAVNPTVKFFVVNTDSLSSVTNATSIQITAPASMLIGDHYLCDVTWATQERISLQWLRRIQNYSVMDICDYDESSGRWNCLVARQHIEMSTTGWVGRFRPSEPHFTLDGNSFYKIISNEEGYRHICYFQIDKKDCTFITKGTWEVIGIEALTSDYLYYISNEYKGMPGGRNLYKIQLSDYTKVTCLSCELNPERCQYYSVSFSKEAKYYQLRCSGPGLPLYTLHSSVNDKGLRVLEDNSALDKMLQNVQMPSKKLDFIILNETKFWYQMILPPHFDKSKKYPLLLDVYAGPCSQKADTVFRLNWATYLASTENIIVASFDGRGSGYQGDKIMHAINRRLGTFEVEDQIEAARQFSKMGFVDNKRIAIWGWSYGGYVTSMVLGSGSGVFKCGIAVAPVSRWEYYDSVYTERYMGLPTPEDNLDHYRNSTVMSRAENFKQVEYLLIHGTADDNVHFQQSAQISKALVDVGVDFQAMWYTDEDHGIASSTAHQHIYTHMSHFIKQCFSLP
Description: (§1) The DPP4 inhibitory activity was studied following Hung et al.. All the reagents and samples were dissolved in 0.1 M Tris-HCl buffer, pH 8. First, 25 µL of 1.6 mM GP-pNA was premixed with 25 µL of sample and incubated at 37 °C for 10 min. Then, 50 µL of 0.5 U/µL DPP4 was added. The reaction was set at 37 °C for one hour. 100 µL of 1 M sodium acetate at pH 4 was added to stop the enzymatic reaction. Using a PowerWave XS (Biotek®, Winooski, VT, USA) 96-well microplate reader, the absorbance of pNA, which was generated by the DPP4 and GP-pNA reactions, was measured at 405 nm. DPP4 inhibitory activity was examined by the following formula:(1) DPP4 inhibitory activity%=pNA(no inhibitor)−pNA(inhibitor)/pNA(no inhibitor)×100%,
(§2) The absorbances of pNA obtained in the presence and absence of an inhibitor were referred to as pNA (inhibitor) and pNA (no inhibitor), respectively. The DPP4 half-maximal inhibitory concentration (DPP4 IC50) was determined by plotting at least five logarithmic concentrations of the inhibitor versus their DPP4 inhibition (%) to construct a nonlinear regression.

[2] = tested on: DPP4; conditions: cited from earlier work
[3] = target: T2, angiotensin-I-converting enzyme (ACE) from rabbit lungs (Oryctolagus cuniculus, UniProt P12822); assay: ACE inhibitory activity and IC50 (HHL substrate, HA by RP-HPLC); type: biochemical
T2 construct: angiotensin-I-converting enzyme (ACE) from rabbit lungs; purchased Sigma–Aldrich Co; host or cells: rabbit lung tissue
T2 sequence (P12822 34-1310): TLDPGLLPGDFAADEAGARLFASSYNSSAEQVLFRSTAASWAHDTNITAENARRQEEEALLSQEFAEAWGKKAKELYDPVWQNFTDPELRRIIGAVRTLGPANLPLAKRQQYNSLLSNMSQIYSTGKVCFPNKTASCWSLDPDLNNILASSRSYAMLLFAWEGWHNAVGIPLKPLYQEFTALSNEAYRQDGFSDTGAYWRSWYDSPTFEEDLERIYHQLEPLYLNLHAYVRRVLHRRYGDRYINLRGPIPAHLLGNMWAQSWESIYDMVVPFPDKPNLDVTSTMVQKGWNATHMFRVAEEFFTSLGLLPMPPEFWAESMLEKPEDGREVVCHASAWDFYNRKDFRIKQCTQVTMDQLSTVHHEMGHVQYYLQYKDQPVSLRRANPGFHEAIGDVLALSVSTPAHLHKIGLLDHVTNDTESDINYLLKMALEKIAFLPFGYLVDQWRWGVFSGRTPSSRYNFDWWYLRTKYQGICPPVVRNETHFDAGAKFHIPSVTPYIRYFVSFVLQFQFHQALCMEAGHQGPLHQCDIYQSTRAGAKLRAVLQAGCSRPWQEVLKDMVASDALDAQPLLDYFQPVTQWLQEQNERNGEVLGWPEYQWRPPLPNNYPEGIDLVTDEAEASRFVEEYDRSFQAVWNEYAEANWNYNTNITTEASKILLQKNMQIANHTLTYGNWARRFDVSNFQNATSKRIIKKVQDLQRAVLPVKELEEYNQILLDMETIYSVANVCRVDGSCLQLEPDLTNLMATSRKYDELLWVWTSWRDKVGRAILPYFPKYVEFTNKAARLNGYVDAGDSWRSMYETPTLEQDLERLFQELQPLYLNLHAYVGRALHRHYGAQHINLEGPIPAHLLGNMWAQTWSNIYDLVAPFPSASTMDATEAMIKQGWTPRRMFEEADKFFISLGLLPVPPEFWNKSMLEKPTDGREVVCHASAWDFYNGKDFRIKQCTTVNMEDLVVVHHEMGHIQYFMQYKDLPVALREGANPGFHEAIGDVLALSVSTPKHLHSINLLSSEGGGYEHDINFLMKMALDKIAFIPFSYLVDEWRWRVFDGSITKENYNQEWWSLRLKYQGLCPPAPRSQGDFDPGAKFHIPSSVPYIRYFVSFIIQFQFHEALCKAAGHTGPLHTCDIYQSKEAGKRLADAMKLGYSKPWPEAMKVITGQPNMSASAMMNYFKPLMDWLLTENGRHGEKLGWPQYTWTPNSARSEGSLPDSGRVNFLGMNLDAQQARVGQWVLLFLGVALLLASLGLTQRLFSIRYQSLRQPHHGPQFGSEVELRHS
Description: (§3) The ACE inhibitory activity was investigated following Cushman and Cheung, with some modifications. First, 30 µL of 2.5 mM HHL was premixed with 10 µL of the sample at 37 °C for 5 min. Then, 20 µL of 0.05 mU/µL ACE was added. The reaction was maintained at 37 °C for one hour. Afterward, 60 µL of 1 N HCl was added to stop the reaction, and 10 µL of 0.2 µg/µL ferulic acid was used as an internal standard. All the reagents and samples were dissolved in pH 8.3 ACE buffer (760 mM boric acid, 300 mM NaCl, and 200 mM NaOH). Using UV-Vis RP-HPLC (Hitachi High-Tech Co., Tokyo, Japan), the area of HA, as the product of ACE and HHL reactions, was measured at 228 nm. An elution with 23% ACN and 0.1% TFA was used at a flow rate of 1 mL/min for 15 min to separate the analytes. ACE inhibitory activity was determined by the following formula:(2) ACE inhibitory activity%=HA(no inhibitor)−HA(inhibitor)/HA(no inhibitor)×100%
as §2, with “areas” for “absorbances”, “HA acquired” for “pNA obtained”, “HA” for “pNA”, “ACE” for “DPP4”, “(ACE” for “(DPP4”, “performed” for “determined”

[4] = target: T1, recombinant human dipeptidyl peptidase-IV (DPP4); assay: Peptide inhibition mechanism toward DPP4 (Lineweaver–Burk plot); type: biochemical; conditions: GP-pNA 0.8, 1.6, 3.2 mM
Description: as §1
The inhibition mechanism of peptides on DPP4 and ACE was studied using the inhibitory assays described previously. The peptide inhibition mechanism toward DPP4 was identified by generating a Lineweaver–Burk plot using the production rates of pNA in the presence and absence of the inhibitor at GP-pNA concentrations of 0.8, 1.6, and 3.2 mM. Meanwhile, the HA production rate was determined with and without the inhibitor using HHL concentrations of 0.625, 1.25, and 5 mM to assess the peptide inhibition mechanism against ACE through a Lineweaver–Burk plot.

[5] = target: T2, angiotensin-I-converting enzyme (ACE) from rabbit lungs; assay: Peptide inhibition mechanism toward ACE (Lineweaver–Burk plot); type: biochemical; conditions: HHL 0.625, 1.25, 5 mM
Description: as §3
The inhibition mechanism of peptides on DPP4 and ACE was studied using the inhibitory assays described previously. […] Meanwhile, the HA production rate was determined with and without the inhibitor using HHL concentrations of 0.625, 1.25, and 5 mM to assess the peptide inhibition mechanism against ACE through a Lineweaver–Burk plot.

[6] = tested on: pepsin, trypsin and α-chymotrypsin; assay: Stability against simulated gastrointestinal (SGI) digestion (pepsin, then trypsin and α-chymotrypsin; LC-MS); type: in vitro ADME; conditions: pepsin ninety minutes, then α-chymotrypsin and trypsin three hours, 37 °C
Description: The peptide stability against SGI digestion was investigated by following the research of Gu and Wu, with some modifications. All the SGI enzyme-to-peptide ratios were fixed at 2%. The synthesized peptides MW4 and VF7 were dissolved in 35 mM NaCl buffer (pH 2.0) and digested by pepsin at 37 °C for ninety minutes, respectively. Next, the pH was adjusted to 7–8. Half of each sample was boiled for 15 min to terminate pepsin digestion. The other half of the sample was treated with trypsin and α-chymotrypsin and the reaction was continued at 37 °C for three hours, followed by boiling for 15 min to stop the reaction. An LC-MS analysis was employed to assess the resistance of peptides to SGI digestion.

[7] = tested on: ACE; conditions: cited from earlier work

Molecule | IC50 [1] [µM] | inhibition at 2000 µM [1] [%] | IC50 [2] [µM] | further results
RATLPF-OH [RF6, RATLPF] | 1670 ± 45.4 | 56 | – | –
PLW [PW3] | – | – | – | DPP4 inhibitory activity [1]: 6%
PAGPF | – | – | 136 | –
CSCC[C@H](N)C(=O)N1CCC[C@H]1C(=O)N[C@@H](Cc1c[nH]cn1)C(=O)N[C@@H](Cc1c[nH]c2ccccc12)C(=O)O [MW4, MPHW] (H-MPHW-OH; N-terminus assumed) | 128 ± 1.3 | 97 | – | IC50 [3]: 172 ± 10.6 µM; DPP4 inhibition mechanism [4]: competitive inhibitors; ACE inhibition mechanism [5]: competitive inhibitor; Stability during simulated gastrointestinal digestion [6]: remained stable; also recorded: neither MW4 nor VF7 was hydrolyzed
HNLPVL [HL6] | – | – | – | DPP4 inhibitory activity [1]: 12%
APLVSW | – | – | 145 | IC50 [7]: 9.6 µM
ELF [EF3] | – | – | – | DPP4 inhibitory activity [1]: 4%
LPSW | – | – | 270 | IC50 [7]: 21 µM
WALPTQSW [peptide derived from Inca nut seed GP hydrolysate] | – | – | 132 | IC50 [7]: 4.7 µM
CC(C)C[C@H](N)C(=O)N[C@@H](Cc1ccccc1)C(=O)N[C@@H](Cc1ccc(O)cc1)C(=O)O [LY3, LFY] (H-Leu-Phe-Tyr-OH; N-terminus assumed) | 2100 ± 55.2 | 49 | – | –
VPSGAPF-OH [VF7, VPSGAPF] | 151 ± 3.4 | 90 | – | inhibition at 200 µM ([3]; 200 µM): 19%; DPP4 inhibition mechanism [4]: competitive inhibitors; Stability during simulated gastrointestinal digestion [6]: remained stable; also recorded: neither MW4 nor VF7 was hydrolyzed
MLPQNF-OH [MF6, MLPQNF] | 957 ± 39.2 | 68 | – | –
LFPNAGY-OH [LY7, LFPNAGY] | 913.6 ± 6.7 | 71 | – | –
